In patent publication US9598459B2, “Pharmaceutical compositions and methods” (priority 2015, dated 2017):
“And” between values parts separate entries of the source, which are not always exact repeats. Equal values may be shown once. Read-outs that look alike come from different tables or passages of the source.

Experiments:
Tacaribe TRVL11573 = test: microbe, parasite or virus in culture; assay type: cell-based, Tacaribe virus; conditions: Mammarenavirus tacaribeense, Vero
[1] = cited from earlier work
[2] = Toxicity in RAW267.4 cells (neutral red); conditions: mouse, RAW267.4 cells, CC50, Neutral Red (Toxicity), Example 11
[3] = tested on: West Nile virus Kern 515, WN02; test: West Nile virus antiviral screen in Vero 76; assay type: cell-based
OM-10.1 cells = test: Toxicity in OM-10.1 (Cell Titer 96); conditions: for TOXICITY VALUES (Cell Titer 96): SAMPLE 1-3, MEAN

SMILES: CC#C[C@]1(O)CC[C@H]2[C@@H]3CCC4=CC(=O)CCC4=C3[C@@H](c3ccc4c(c3)OCO4)C[C@@]21C [PT150, (11β,17β)-11-(1,3-benzodioxol-5-yl)-17-hydroxy-17-(1-propynyl)-estra-4,9-dien-3-one]
- EC50 (Tacaribe TRVL11573): 7.2 µM and 3.1 µg/mL
- adverse indications of cell toxicity ([1]; Phase II, patients, 900 mg per day for 2 weeks): no noted adverse indications of cell toxicity
- significant toxicities and side effects ([1]; phase I and phase II clinical trials): none were identified
- CC50 [2]: 33 µM

SMILES: CC#CC1(O)CCC2C3CCC4=CC(=NNC(N)=S)CCC4=C3C(c3ccc4c(c3)OCO4)CC21C.CC#CC1(O)CCC2C3CCC4=CC(=O)CCC4=C3C(c3ccc4c(c3)OCO4)CC21C.CC(C)=O.CCO.O (stereo not drawn) [PT155, ⅓ (11β,17β)-17-Hydroxy-11-[3,4-(methylenedioxy)phenyl]-17-(1-propyn-1-yl)estra-4,9-dien-3-one (ORG34517)×(2EZ)-2-{(11β,17β)-17-hydroxy-11-[3,4-(methylenedioxy)phenyl]-17-(1-propyn-1-yl)estra-4,9-dien-3-ylidene}hydrazinecarbothioamide [71.8% (E), 28.2% (Z)] hemihydrate×¾% acetone× ⅛ ethanol]
- EC50 ([3]; Neutral Red): >55 µg/mL
- EC50 ([3]; Visual (Cytopathic effect/Toxicity), unit from Conc. Range): >22 µg/mL
- % CC (OM-10.1 cells; 0.01 μM): 93.9%
- TOXICITY VALUES (Cell Titer 96) (OM-10.1 cells; 0.01 μM): 0.707 O.D. @ 490/650 nm and 0.669 O.D. @ 490/650 nm and 0.567 O.D. @ 490/650 nm
- % CC (OM-10.1 cells; 0.03 μM): 105.6%
- TOXICITY VALUES (Cell Titer 96) (OM-10.1 cells; 0.03 μM): 0.749 O.D. @ 490/650 nm and 0.794 O.D. @ 490/650 nm and 0.642 O.D. @ 490/650 nm
- % CC (OM-10.1 cells; 0.10 μM): 110.0%
- TOXICITY VALUES (Cell Titer 96) (OM-10.1 cells; 0.10 μM): 0.867 O.D. @ 490/650 nm and 0.820 O.D. @ 490/650 nm and 0.590 O.D. @ 490/650 nm
- % CC (OM-10.1 cells; 1.00 μM): 119.25%
- TOXICITY VALUES (Cell Titer 96) (OM-10.1 cells; 1.00 μM): 0.937 O.D. @ 490/650 nm and 0.911 O.D. @ 490/650 nm and 0.618 O.D. @ 490/650 nm
- % CC (OM-10.1 cells; 3.16 μM): 109.6%
- TOXICITY VALUES (Cell Titer 96) (OM-10.1 cells; 3.16 μM): 0.896 O.D. @ 490/650 nm and 0.800 O.D. @ 490/650 nm and 0.572 O.D. @ 490/650 nm
- % CC (OM-10.1 cells; 10.0 μM): 105.7%
- TOXICITY VALUES (Cell Titer 96) (OM-10.1 cells; 10.0 μM): 0.828 O.D. @ 490/650 nm and 0.761 O.D. @ 490/650 nm and 0.599 O.D. @ 490/650 nm
- % CC (OM-10.1 cells; 31.6 μM): 93.4%
- TOXICITY VALUES (Cell Titer 96) (OM-10.1 cells; 31.6 μM): 0.714 O.D. @ 490/650 nm and 0.682 O.D. @ 490/650 nm and 0.536 O.D. @ 490/650 nm
- % CC (OM-10.1 cells; 100 μM): 112.5%
- TOXICITY VALUES (Cell Titer 96) (OM-10.1 cells; 100 μM): 0.777 O.D. @ 490/650 nm and 0.775 O.D. @ 490/650 nm
- TC 90% (OM-10.1 cells; OM-10.1): >100 µM
- TC 95% (OM-10.1 cells; OM-10.1): >100 µM
- CC50 (OM-10.1 cells; OM-10.1, Table 7): > 100 µM
- CC50 (OM-10.1 cells; read-out: TC 50%, OM-10.1): > 100 µM
